The results in this text go back to PMC12406253, “Exploration of the Neuromodulatory Properties of Fyn and GSK-3β Kinases Exploiting 7‑Azaindole-Based Inhibitors” (Journal of Medicinal Chemistry, 2025).

Structures are written as SMILES.

The target of one data set is T1, CK1γ1(h) (Homo sapiens, UniProt Q9HCP0).
T1 construct: purchased Eurofins KinaseProfiler (Eurofins Cerep)
Put plainly: Eurofins KinaseProfiler radiometric kinase assay. The format is biochemical. The note with it: read-out: CK1γ1(h) % Residual activity.

Data set [1] has as its system neurospheres (NPCs from the subventricular zone). Put plainly: Neurosphere differentiation, immunofluorescence of DCX, GFAP, OLIG2. The format is cell-based, mice. The note with it: 1 μM; 7 days. From the text: Lastly, we move forward to evaluate the neuromodulatory profile of selected compounds that involves the capability to polarize the spontaneous differentiation of neurospheres, which potentially can maturate in neurons or macroglia, such as astrocytes and oligodendrocytes. Modulating NPC differentiation is especially relevant under neurodegenerative conditions as it could offer an intriguing opportunity to achieve polyhedric therapeutic effects. Importantly, neuronal differentiation may help to counteract the progressive neuronal loss, while promoting oligodendrocyte phenotype could support remyelination and neuronal function and the astrocytic polarization may aid to foster a neuroprotective profile. Particularly, after 7 days of treatment at 1 μM, in the same experimental conditions previously reported, cells were fixed and stained with different antibody markers such as doublecortin (DCX) for the immature neurons, glial fibrillary acidic protein (GFAP) for astrocytes, and oligodendrocyte transcription factor 2 (OLIG2) for oligodendrocyte precursors for immunofluorescence analysis (Figure a). […] By driving the maturation of astrocytes, compounds 41 and 43 could exert neuroprotection through multiple mechanisms, including the secretion of neurotrophic factors, enhancement of antioxidant defenses, regulation of water balance, ion homeostasis, and glutamate buffering and recycling. Furthermore, astrocytes support the integrity of the blood–brain barrier (BBB) and aid in the refinement of neural networks via synaptic pruning, further reinforcing their role in preserving brain function and structure.
NSCs were initially obtained by SVZ microdissection of 6 months-old C57BL/6N wild-type male mice (Mus musculus) and routinely cultured in suspension in DMEM-F12 (Gibco; ThermoFisher Scientific, Waltham, MA, USA) supplemented with 2 mM glutamine, 10 μg/mL insulin from bovine pancreas (Sigma-Aldrich; St Louis, MO, USA), 20 ng/mL epidermal growth factor (EGF; PeproTech EC, London, UK), 20 ng/mL fibroblast growth factor-2 (FGF2; PeproTech), 1% N2 (ThermoFisher Scientific), 1% B27 (ThermoFisher Scientific), 10 units/mL penicillin, and 10 μg streptomycin.
To assess the effect of compounds of interest in NSCs differentiation, 30 spheres were plated on 13 mm glass coverslips, previously coated with Matrigel matrix (Corning; New York, USA), in complete DMEM F-12 medium, and treated with 1 μM of compounds of interest. After 7DIV, neurospheres were fixed for 20 min with 4% PFA in PBS 0.1% pH 7.4. Fixed neurospheres were permeabilized in 0.1% Triton/PBS and nonspecific sites were blocked for 1 h with 0.1% Triton/PBS and 5% normal goat serum (Sigma-Aldrich; St Louis, MO, USA). Cells were then incubated overnight at 4 °C with the following primary antibodies: Anti-Doublecortin DCX (Abcam, Cambridge, UK), GFAP (Dakopatts), OLIG2 (Santa Cruz Biotechnology), 1:500 dilution in 0.1% Triton/PBS with 2% normal goat serum. After 3 washes in 0.1% Triton/PBS, specific secondary antibodies were added for 2 h at RT in the dark: Donkey anti-Mouse IgG Alexafluor 555 (Abcam, Cambridge, UK), Goat anti-Rabbit IgG Alexafluor 555 (Abcam, Cambridge, UK), 1:1000 dilution in 0.1% Triton/PBS with 2% normal goat serum. Following 3 washes in 0.1% Triton/PBS, nuclei were stained with DAPI (2 μg/mL, Sigma-Aldrich) for 5 min. Glass coverslips were mounted by using Ultracruz Aqueous Mounting Medium with DAPI (Santa Cruz Biotechnology). Neurospheres confocal images were obtained with a Nikon EZ-C1 microscope (60× objective) and the z-stack function (1024 steps and 1 μm thickness layers; 40 total stacks). 3D image reconstruction was performed by using Fiji ImageJ2 software, z-project plugin, and selecting the sum stacks’ function. Fluorescence intensity index was estimated as the ratio of markers’ positive cells intensity/total cells fluorescence intensity stained with DAPI per ROI.

The next data set addresses T2, PKBα(h) (Homo sapiens, UniProt P31749).
T2 construct: purchased Eurofins KinaseProfiler (Eurofins Cerep)
Put plainly: Eurofins KinaseProfiler radiometric kinase assay. The format is biochemical. The following applies: read-out: PKBα(h) % Residual activity.

The target in another data set is T3, Plk3(h) (Homo sapiens, UniProt Q9H4B4).
T3 construct: purchased Eurofins KinaseProfiler (Eurofins Cerep)
Put plainly: Eurofins KinaseProfiler radiometric kinase assay. It is filed as biochemical. The following applies: read-out: Plk3(h) % Residual activity.

The target in a further data set is T4, ROCK-I(h) (Homo sapiens, UniProt Q13464).
T4 construct: purchased Eurofins KinaseProfiler (Eurofins Cerep)
The data set can be described thus: Eurofins KinaseProfiler radiometric kinase assay. It is filed as biochemical. The note with it: read-out: ROCK-I(h) % Residual activity.

Another data set concerns the target T5, KDR(h) (Homo sapiens, UniProt P35968).
T5 construct: purchased Eurofins KinaseProfiler (Eurofins Cerep)
The data set can be described thus: Eurofins KinaseProfiler radiometric kinase assay. It is filed as biochemical. The following applies: read-out: KDR(h) % Residual activity.

For a further data set, the target named is T6, MEK1(h) (Homo sapiens, UniProt Q02750).
T6 construct: purchased Eurofins KinaseProfiler (Eurofins Cerep)
Put plainly: Eurofins KinaseProfiler radiometric kinase assay. It is filed as biochemical. The following applies: read-out: MEK1(h) % Residual activity.

The next data set concerns the target T7, Lyn(h) (Homo sapiens, UniProt P07948).
T7 construct: purchased Eurofins KinaseProfiler (Eurofins Cerep)
The data set can be described thus: Eurofins KinaseProfiler radiometric kinase assay. The following applies: for Lyn inhibition: 10 µM; for remaining activity at 10 µM: read-out: Lyn(h) % Residual activity. It is filed as biochemical.

Data set [2] concerns the target T8, PI3 Kinase (p110β/p85α)(h) (Homo sapiens, UniProt P42338).
T8 construct: purchased Eurofins (Eurofins Cerep) KinaseProfiler
The data set can be described thus: Eurofins KinaseProfiler radiometric kinase assay. It is filed as biochemical. The following applies: read-out: PI3 Kinase (p110β/p85α)(h) % Residual activity.

The target of a further data set is T9, Aurora-A(h) (Homo sapiens, UniProt O14965).
T9 construct: purchased Eurofins KinaseProfiler (Eurofins Cerep)
The data set can be described thus: Eurofins KinaseProfiler radiometric kinase assay. It is filed as biochemical. The following applies: read-out: Aurora-A(h) % Residual activity.

Another data set concerns the target T10, eEF-2K(h) (Homo sapiens, UniProt O00418).
T10 construct: purchased Eurofins KinaseProfiler (Eurofins Cerep)
The data set can be described thus: Eurofins KinaseProfiler radiometric kinase assay. It is filed as biochemical. The note with it: read-out: eEF-2K(h) % Residual activity.

Another data set concerns the target T11, Fyn(h) (Homo sapiens, UniProt P06241).
T11 construct: purchased Eurofins KinaseProfiler (Eurofins Cerep)
Put plainly: Eurofins KinaseProfiler radiometric kinase assay. The note with it: for Fyn inhibition: 10 µM; for remaining activity at 10 µM: read-out: Fyn(h) % Residual activity. The format is biochemical.

The target of data set [3] is T12, PI3 Kinase (p110δ/p85α)(h) (Homo sapiens, UniProt O00329).
T12 construct: purchased Eurofins (Eurofins Cerep) KinaseProfiler
Put plainly: Eurofins KinaseProfiler radiometric kinase assay. The format is biochemical. The note with it: read-out: PI3 Kinase (p110δ/p85α)(h) % Residual activity.

The test system of data set [4] is primary rat cerebellar granule neurons (CGNs). Put plainly: Neurotoxicity, cell viability in CGNs (MTT). The format is cell-based. The following applies: 5, 10, and 25 μM, 24 h.
Description: A preliminary cell viability assessment was conducted in primary rat cerebellar granule neurons (CGNs), which are considered a reliable model for studying cellular and molecular mechanisms of survival/apoptosis and neurodegeneration/neuroprotection.
Primary cerebellar granule cells were dissociated from cerebella and plated on 96-well plates, previously coated with 10 μg/mL poly-L-lysine, at a density of 1.2 × 10^5 cells/0.2 mL medium/well in BME supplemented with 10% heat-inactivated FBS (Life Technologies), 2 mmol/L glutamine, 100 μmol/L gentamicin sulfate, and 25 mM KCl (all from Sigma-Aldrich). Sixteen hours later, 10 μM cytosine arabinofuranoside (Sigma-Aldrich) was added to avoid glial proliferation. After 7 days in vitro, differentiated neurons were shifted to serum-free BME medium and exposed to increasing concentrations (5 μM, 10 μM, 25 μM) of compounds of interest for 24 h. Then, cell viability was evaluated through the MTT assay.
For MTT assay, thiazolyl blue was added to the culture medium at a final concentration of 0.1 mg/mL. Following a 20 min incubation at 37 °C in the dark, the MTT precipitate was dissolved in 0.1 M Tris–HCl pH 7.5 buffer containing 5% Triton X-100 (all from Sigma-Aldrich) and absorbance was read at 570 nm in a microplate spectrophotometric reader (Bio-Rad).
The next data set concerns the target T13, ASK1(h) (Homo sapiens, UniProt Q99683).
T13 construct: purchased Eurofins KinaseProfiler (Eurofins Cerep)
Put plainly: Eurofins KinaseProfiler radiometric kinase assay. It is filed as biochemical. The note with it: read-out: ASK1(h) % Residual activity.

The target of another data set is T14, SRPK1(h) (Homo sapiens, UniProt Q96SB4).
T14 construct: purchased Eurofins (Eurofins Cerep) KinaseProfiler
Put plainly: Eurofins KinaseProfiler radiometric kinase assay. It is filed as biochemical. The following applies: read-out: SRPK1(h) % Residual activity.

The target of another data set is T15, CDK6/cyclinD3(h) (Homo sapiens, UniProt Q00534).
T15 construct: purchased Eurofins KinaseProfiler (Eurofins Cerep)
The data set can be described thus: Eurofins KinaseProfiler radiometric kinase assay. The format is biochemical. The note with it: read-out: CDK6/cyclinD3(h) % Residual activity.

T7 sequence (P07948 whole entry): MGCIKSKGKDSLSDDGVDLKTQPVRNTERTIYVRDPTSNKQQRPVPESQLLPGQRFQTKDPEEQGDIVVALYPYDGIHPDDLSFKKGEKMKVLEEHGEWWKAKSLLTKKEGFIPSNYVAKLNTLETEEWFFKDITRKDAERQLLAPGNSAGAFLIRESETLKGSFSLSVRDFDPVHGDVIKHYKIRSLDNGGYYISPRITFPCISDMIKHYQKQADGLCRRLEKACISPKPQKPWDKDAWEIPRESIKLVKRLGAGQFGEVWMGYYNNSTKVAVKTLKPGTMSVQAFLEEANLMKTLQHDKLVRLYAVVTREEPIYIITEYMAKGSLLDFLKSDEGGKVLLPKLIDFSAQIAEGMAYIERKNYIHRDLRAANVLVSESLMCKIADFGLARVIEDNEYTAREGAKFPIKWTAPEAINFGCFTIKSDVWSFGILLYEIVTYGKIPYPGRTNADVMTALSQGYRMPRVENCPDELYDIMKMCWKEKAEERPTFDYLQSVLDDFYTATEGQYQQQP
T11 sequence (P06241 whole entry): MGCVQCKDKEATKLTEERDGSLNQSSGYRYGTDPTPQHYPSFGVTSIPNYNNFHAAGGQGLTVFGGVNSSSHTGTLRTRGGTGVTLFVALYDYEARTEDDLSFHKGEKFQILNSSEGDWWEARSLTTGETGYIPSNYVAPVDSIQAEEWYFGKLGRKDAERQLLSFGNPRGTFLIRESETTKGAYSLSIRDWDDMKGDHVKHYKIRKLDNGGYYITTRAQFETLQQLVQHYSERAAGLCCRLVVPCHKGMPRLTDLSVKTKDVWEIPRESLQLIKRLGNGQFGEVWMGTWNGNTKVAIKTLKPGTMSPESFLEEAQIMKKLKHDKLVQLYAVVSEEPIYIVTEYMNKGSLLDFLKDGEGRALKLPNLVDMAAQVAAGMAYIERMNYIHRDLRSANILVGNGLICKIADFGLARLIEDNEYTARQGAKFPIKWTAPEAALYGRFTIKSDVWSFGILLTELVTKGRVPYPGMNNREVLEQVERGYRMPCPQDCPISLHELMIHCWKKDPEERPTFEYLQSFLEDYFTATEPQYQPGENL
T9 sequence (O14965 whole entry): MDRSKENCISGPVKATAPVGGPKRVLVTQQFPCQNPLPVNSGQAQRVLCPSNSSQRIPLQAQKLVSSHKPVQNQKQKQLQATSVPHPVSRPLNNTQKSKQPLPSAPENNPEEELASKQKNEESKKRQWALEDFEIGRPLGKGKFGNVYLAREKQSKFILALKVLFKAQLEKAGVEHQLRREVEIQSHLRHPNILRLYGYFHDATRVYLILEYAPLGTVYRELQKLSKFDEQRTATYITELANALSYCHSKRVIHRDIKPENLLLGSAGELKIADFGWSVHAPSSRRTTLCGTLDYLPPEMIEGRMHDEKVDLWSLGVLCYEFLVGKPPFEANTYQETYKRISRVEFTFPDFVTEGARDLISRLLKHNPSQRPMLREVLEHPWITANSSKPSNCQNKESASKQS
T3 sequence (Q9H4B4 whole entry): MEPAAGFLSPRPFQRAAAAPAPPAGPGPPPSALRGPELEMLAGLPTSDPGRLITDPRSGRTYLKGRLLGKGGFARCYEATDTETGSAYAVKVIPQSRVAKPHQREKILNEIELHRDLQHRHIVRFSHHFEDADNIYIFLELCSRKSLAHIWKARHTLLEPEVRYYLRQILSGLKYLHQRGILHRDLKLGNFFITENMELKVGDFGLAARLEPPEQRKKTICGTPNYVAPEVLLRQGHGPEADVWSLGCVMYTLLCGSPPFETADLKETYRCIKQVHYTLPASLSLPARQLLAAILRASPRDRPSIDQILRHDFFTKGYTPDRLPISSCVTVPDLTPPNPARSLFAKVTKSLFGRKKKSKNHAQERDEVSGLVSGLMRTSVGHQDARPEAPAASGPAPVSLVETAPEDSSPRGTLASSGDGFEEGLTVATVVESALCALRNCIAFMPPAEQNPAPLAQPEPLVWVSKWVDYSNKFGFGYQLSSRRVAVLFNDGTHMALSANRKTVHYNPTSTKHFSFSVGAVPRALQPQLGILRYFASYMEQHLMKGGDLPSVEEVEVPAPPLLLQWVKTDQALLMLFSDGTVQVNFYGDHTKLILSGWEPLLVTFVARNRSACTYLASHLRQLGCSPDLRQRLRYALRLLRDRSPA
T6 sequence (Q02750 whole entry): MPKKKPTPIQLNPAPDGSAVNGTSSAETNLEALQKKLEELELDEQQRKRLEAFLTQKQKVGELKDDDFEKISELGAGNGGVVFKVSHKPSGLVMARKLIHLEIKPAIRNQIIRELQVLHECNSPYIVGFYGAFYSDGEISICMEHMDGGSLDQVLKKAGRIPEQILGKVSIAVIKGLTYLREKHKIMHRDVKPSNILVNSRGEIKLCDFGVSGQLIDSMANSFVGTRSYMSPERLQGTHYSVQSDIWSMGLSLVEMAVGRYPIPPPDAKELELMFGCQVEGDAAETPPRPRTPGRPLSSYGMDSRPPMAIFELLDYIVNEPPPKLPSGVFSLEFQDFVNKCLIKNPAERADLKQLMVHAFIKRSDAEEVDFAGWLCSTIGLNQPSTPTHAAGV
T13 sequence (Q99683 whole entry): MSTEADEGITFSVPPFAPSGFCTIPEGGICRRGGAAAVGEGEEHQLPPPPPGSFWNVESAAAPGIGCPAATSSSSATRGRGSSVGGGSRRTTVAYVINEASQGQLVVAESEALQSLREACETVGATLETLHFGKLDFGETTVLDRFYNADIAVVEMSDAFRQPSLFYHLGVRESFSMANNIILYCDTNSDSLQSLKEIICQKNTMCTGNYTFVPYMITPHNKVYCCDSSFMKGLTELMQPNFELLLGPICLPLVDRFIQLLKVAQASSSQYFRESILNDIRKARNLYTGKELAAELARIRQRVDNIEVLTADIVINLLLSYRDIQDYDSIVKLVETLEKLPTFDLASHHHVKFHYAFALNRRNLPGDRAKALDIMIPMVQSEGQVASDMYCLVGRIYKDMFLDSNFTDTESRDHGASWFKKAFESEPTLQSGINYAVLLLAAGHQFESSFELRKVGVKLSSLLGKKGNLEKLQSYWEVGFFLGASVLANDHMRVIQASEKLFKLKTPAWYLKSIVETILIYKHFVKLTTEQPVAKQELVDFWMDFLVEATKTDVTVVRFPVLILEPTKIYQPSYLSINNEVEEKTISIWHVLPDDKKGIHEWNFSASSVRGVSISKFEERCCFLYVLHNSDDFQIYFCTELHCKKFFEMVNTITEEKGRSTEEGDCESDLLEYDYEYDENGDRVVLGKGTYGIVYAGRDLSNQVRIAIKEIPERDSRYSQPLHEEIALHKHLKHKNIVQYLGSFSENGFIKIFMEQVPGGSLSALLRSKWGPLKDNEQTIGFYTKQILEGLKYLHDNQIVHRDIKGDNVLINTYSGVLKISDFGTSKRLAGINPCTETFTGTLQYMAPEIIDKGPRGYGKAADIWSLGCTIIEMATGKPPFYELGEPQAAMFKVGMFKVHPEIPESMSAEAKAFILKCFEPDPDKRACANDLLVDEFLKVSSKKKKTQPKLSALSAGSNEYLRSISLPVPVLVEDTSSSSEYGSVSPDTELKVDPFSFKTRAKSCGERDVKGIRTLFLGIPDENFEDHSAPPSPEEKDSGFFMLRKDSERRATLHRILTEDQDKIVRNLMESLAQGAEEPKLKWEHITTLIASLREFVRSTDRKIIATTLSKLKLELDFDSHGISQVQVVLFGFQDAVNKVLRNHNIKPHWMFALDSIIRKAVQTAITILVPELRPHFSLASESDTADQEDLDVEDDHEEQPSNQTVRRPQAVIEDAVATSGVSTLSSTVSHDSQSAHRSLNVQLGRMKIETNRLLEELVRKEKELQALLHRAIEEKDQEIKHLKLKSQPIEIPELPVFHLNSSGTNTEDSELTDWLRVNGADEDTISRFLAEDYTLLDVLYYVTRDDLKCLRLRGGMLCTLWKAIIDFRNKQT
T14 sequence (Q96SB4 whole entry): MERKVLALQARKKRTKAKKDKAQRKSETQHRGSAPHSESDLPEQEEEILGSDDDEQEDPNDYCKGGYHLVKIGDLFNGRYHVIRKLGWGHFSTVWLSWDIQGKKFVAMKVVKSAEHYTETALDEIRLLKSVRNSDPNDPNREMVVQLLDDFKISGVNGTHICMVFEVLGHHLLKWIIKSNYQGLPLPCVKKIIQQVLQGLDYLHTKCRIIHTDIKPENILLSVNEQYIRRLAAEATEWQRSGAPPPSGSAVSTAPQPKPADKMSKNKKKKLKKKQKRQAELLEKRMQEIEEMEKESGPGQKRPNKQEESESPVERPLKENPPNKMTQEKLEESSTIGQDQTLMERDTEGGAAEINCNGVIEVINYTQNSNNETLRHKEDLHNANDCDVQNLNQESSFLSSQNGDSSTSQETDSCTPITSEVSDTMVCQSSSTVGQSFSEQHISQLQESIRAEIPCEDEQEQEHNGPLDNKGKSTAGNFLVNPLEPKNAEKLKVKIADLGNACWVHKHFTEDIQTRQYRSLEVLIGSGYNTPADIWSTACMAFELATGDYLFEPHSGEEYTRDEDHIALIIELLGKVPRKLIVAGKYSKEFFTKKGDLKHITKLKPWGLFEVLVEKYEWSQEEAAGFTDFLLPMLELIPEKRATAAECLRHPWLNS
T2 sequence (P31749 whole entry): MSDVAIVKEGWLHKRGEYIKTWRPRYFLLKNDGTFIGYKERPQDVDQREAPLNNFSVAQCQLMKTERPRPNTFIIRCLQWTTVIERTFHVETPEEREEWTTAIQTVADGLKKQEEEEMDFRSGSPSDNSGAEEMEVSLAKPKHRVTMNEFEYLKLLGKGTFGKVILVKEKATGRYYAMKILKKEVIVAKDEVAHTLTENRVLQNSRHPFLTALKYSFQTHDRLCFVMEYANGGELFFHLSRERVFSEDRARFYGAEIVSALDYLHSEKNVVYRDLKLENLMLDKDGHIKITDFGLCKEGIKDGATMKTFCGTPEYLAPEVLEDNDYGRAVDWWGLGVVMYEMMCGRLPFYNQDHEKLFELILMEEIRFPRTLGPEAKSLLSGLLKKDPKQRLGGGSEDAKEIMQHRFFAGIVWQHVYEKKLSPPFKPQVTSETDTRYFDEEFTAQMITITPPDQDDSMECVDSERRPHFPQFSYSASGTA

Turning to `Br.Cc1sc(NCc2ccccc2)nc1-c1c[nH]c2ncc(Br)cc12` [Compound 41, N-Benzyl-4-(5-bromo-1H-pyrrolo[2,3-b]pyridin-3-yl)-5-methylthiazol-2-amine Hydrobromide], the remaining activity at 10 µM on CK1γ1(h) turned out to be 93%; at PKBα(h), 104%; at Plk3(h) it was 89%; at ROCK-I(h) it was 93%; at KDR(h), 16%; on MEK1(h), 61%. The remaining activity at 10 µM on Lyn(h) was 1%; in data set [2], 89%; on Aurora-A(h), 11%; on eEF-2K(h), 121%; at Fyn(h) it was -2%; in data set [3], 66%. Besides, the remaining activity at 10 µM on ASK1(h) was 72%; on SRPK1(h), 85%; on CDK6/cyclinD3(h) it was 86%. Moreover, the “Differentiation toward astrocytes (GFAP)” value in [1] is listed as “notably directed the differentiation toward the astrocytic phenotype”. Besides, the “Differentiation toward oligodendrocytes (OLIG2)” value in data set [1] was “markedly deleterious for oligodendrocytes”. Also, on Lyn(h), the “Lyn inhibition” value is reported as “completely inhibited”. In addition, on Fyn(h), the “Fyn inhibition” value is listed as “completely inhibited”. Also, the “Increase in registered cell viability in comparison to control” value in data set [4] is on record as “amplified”. For the same compound, the “Neurotoxicity on CGNs (cell viability compared to control)” value in data set [4] was “not neurotoxic”.
Take `Br.Cc1sc(NCc2ccnc(Cl)c2)nc1-c1c[nH]c2ncccc12` [Compound 43, N-((2-Chloropyridin-4-yl)methyl)-5-methyl-4-(1H-pyrrolo[2,3-b]pyridin-3-yl)thiazol-2-amine Hydrobromide]: the remaining activity at 10 µM on CK1γ1(h) was found to be 77%; at PKBα(h), 103%; on Plk3(h), 96%; at ROCK-I(h), 76%; on KDR(h), 15%; on MEK1(h) it was 35%. Also, the remaining activity at 10 µM came to 1% on Lyn(h); 94% in data set [2]; 27% on Aurora-A(h); 108% at eEF-2K(h); 0% at Fyn(h); 97% in data set [3]. Moreover, the remaining activity at 10 µM is 97% on ASK1(h), 96% on SRPK1(h) and 90% at CDK6/cyclinD3(h). Also, in data set [1], the “Differentiation toward astrocytes (GFAP)” value is given as “notably directed the differentiation toward the astrocytic phenotype”. Moreover, in data set [1], the “Differentiation toward oligodendrocytes (OLIG2)” value is recorded as “this effect was mitigated”. The “Lyn inhibition” value on Lyn(h) is “completely inhibited”. Also, at Fyn(h), the “Fyn inhibition” value was “completely inhibited”. Also, in [4], the “Increase in registered cell viability in comparison to control” value is “amplified”. For the same compound, in data set [4], the “Neurotoxicity on CGNs (cell viability compared to control)” value is “not neurotoxic”.
